In US12331040B2 (Karyopharm Therapeutics Inc., priority 2013, dated 2025):
Like-named read-outs stand apart in the source and are kept apart here.

Assays:
Assay in all cases: MTT cell proliferation assay
Assay type in all cases: cell-based
3T3 cells = conditions: Mus musculus, NIH3T3, approximately 64-72 hours incubation
Method in brief: (§1)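 5,000-10,000 cells/well, overnight attach; 8 conc., 1 nM–30 μM; MTT ~4 h; formazan solubilized, OD 490 nm; % inhibition = (1−(ODo/OD))×100 vs neg. control; mostly duplicate, mean±SE.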

Z138 cells = conditions: Homo sapiens, Z-138, Z138 cells, approximately 64-72 hours incubation
Method in brief: as §1

MS751 cells = conditions: Homo sapiens, MS751, MS751 cells, approximately 64-72 hours incubation
Method in brief: as §1

[1] = read-out: MTT Assay IC50 MS-751
[2] = read-out: MTT Assay IC50, Z-138
[3] = read-out: MTT Assay IC50, MS-751

| SMILES | IC50 (3T3 cells; read-out: MTT Assay IC50 3T3) [µM] | IC50 (Z138 cells; read-out: MTT Assay IC50 Z-138) [µM] | IC50 (MS751 cells; [1]) [µM] | IC50 (3T3 cells; read-out: MTT Assay IC50, 3T3) [µM] | IC50 (Z138 cells; [2]) [µM] | IC50 (MS751 cells; [3]) [µM] |
| --- | --- | --- | --- | --- | --- | --- |
| NC(=O)c1ccc(-c2cc(Cl)c3oc(CNC(=O)/C=C/c4ccc(N)nc4)cc3c2)cc1 [Compound 506, (E)-4-(2-((3-(6-aminopyridin-3-yl)acrylamido)methyl)-7-chlorobenzofuran-5-yl)benzamide] | > 10 | 0.1 to 5 | 5 to 10 | – | – | – |
| Nc1ccc(/C=C/C(=O)NCc2cc3cc(-c4ccc(Oc5ccc(F)nc5)cc4)cc(-c4ccc(F)cc4)c3o2)cn1 [Compound 767, (E)-3-(6-aminopyridin-3-yl)-N-((7-(4-fluorophenyl)-5-(4-((6-fluoropyridin-3-yl)oxy)phenyl)benzofuran-2-yl)methyl)acrylamide] | – | – | – | > 10 | < 0.1 | 0.1 to 5 |
| COc1ccc(Cl)cc1-c1cc(-c2ccc(C(=O)N3CCC(F)(F)CC3)cc2)cc2cc(CNC(=O)/C=C/c3ccc(N)nc3)oc12 [Compound 730, (E)-3-(6-aminopyridin-3-yl)-N-((7-(5-chloro-2-methoxyphenyl)-5-(4-(4,4-difluoropiperidine-1-carbonyl)phenyl)benzofuran-2-yl)methyl)acrylamide] | – | – | – | < 0.1 | < 0.1 | < 0.1 |
| O=C(/C=C/c1cccnn1)NCc1cc2cc(-c3ccc(C(=O)N4CCOCC4)cc3)cc(Cl)c2o1 [Compound 540, (E)-N-((7-chloro-5-(4-(morpholine-4-carbonyl)phenyl)benzofuran-2-yl)methyl)-3-(pyridazin-3-yl)acrylamide] | 5 to 10 | 5 to 10 | 5 to 10 | – | – | – |
| Nc1ccc(/C=C/C(=O)NCc2cc3cc(-c4ccc(C(=S)N5CCC(F)(F)CC5)cn4)cc(-c4ccncc4)c3o2)cn1 [Compound 707, (E)-3-(6-aminopyridin-3-yl)-N-((5-(5-(4,4-difluoropiperidine-1-carbonothioyl)pyridin-2-yl)-7-(pyridin-4-yl)benzofuran-2-yl)methyl)acrylamide] | – | – | – | 0.1 to 5 | < 0.1 | < 0.1 |
| O=C(/C=C/c1cccnc1)NCc1cc2cc(-c3ccc(C(=O)N4CC5(COC5)C4)cn3)cc(C(F)(F)F)c2o1 [Compound 689, (E)-N-((5-(5-(2-oxa-6-azaspiro[3.3]heptane-6-carbonyl)pyridin-2-yl)-7-(trifluoromethyl)benzofuran-2-yl)methyl)-3-(pyridin-3-yl)acrylamide] | – | – | – | 0.1 to 5 | < 0.1 | < 0.1 |
| O=C(/C=C/c1cccnc1)NCc1cc2cc(-c3ccc(C(=O)N4CCC(F)(F)CC4)cn3)cc(-c3ccc(F)cc3)c2o1 [Compound 719, (E)-N-((5-(5-(4,4-difluoropiperidine-1-carbonyl)pyridin-2-yl)-7-(4-fluorophenyl)benzofuran-2-yl)methyl)-3-(pyridin-3-yl)acrylamide] | – | – | – | < 0.1 | < 0.1 | < 0.1 |
| Nc1ccc(/C=C/C(=O)NCc2cc3cc(-c4ccc(C(=O)N5CCC(F)(F)CC5)cc4)cc(-c4cccc(C(F)(F)F)c4)c3o2)cn1 [Compound 731, (E)-3-(6-aminopyridin-3-yl)-N-((5-(4-(4,4-difluoropiperidine-1-carbonyl)phenyl)-7-(3-(trifluoromethyl)phenyl)benzofuran-2-yl)methyl)acrylamide] | – | – | – | 0.1 to 5 | < 0.1 | 0.1 to 5 |
| Nc1ccc(/C=C/C(=O)NCc2cc3cc(-c4ccc(C(=O)N5CCC(O)(C(F)(F)F)CC5)cc4)cc(C(F)(F)F)c3o2)cn1 [Compound 609, (E)-3-(6-aminopyridin-3-yl)-N-((5-(4-(4-hydroxy-4-(trifluoromethyl)piperidine-1-carbonyl)phenyl)-7-(trifluoromethyl)benzofuran-2-yl)methyl)acrylamide] | > 10 | 0.1 to 5 | 0.1 to 5 | – | – | – |
| Nc1ccc(/C=C/C(=O)NCc2cc3cc(-c4ccc(S(=O)(=O)N5CC[C@H](F)C5)cc4)cc(Cl)c3o2)cn1 [Compound 643, (S,E)-3-(6-aminopyridin-3-yl)-N-((7-chloro-5-(4-(3-fluoropyrrolidin-1-ylsulfonyl)phenyl)benzofuran-2-yl)methyl)acrylamide] | > 10 | 0.1 to 5 | 0.1 to 5 | – | – | – |
| CN(C)c1ccc(/C=C/C(=O)NCc2cc3cc(-c4ccc(C(=O)N5CCOCC5)cc4)cc(Cl)c3o2)cn1 [Compound 551, (E)-N-((7-Chloro-5-(4-(morpholine-4-carbonyl)phenyl)benzofuran-2-yl)methyl)-3-(6-(dimethylamino)pyridin-3-yl)acrylamide] | > 10 | > 10 | > 10 | – | – | – |
| CC1(O)CCN(C(=O)c2ccc(-c3cc(C(F)(F)F)c4oc(CNC(=O)/C=C/c5ccc(N)nc5)cc4c3)nc2)C1 (stereo not drawn) [Compound 627, (E)-3-(6-aminopyridin-3-yl)-N-((5-(5-(3-hydroxy-3-methylpyrrolidine-1-carbonyl)pyridin-2-yl)-7-(trifluoromethyl)benzofuran-2-yl)methyl)acrylamide] | > 10 | < 0.1 | < 0.1 | – | – | – |
| Nc1ccc(/C=C/C(=O)NCc2cc3cc(-c4ccc(C(=O)N5CC6(COC6)C5)cc4)cc(C(F)(F)F)c3o2)cn1 [Compound 611, (E)-N-((5-(4-(2-oxa-6-azaspiro[3.3]heptane-6-carbonyl)phenyl)-7-(trifluoromethyl)benzofuran-2-yl)methyl)-3-(6-aminopyridin-3-yl)acrylamide] | > 10 | < 0.1 | < 0.1 | – | – | – |
| Nc1ccc(/C=C/C(=O)NCCc2cc3cc(-c4ccc(C(=O)N5CCC(F)(F)CC5)cn4)cc(C(F)(F)F)c3o2)cn1 [Compound 690, (E)-3-(6-aminopyridin-3-yl)-N-(2-(5-(5-(4,4-difluoropiperidine-1-carbonyl)pyridin-2-yl)-7-(trifluoromethyl)benzofuran-2-yl)ethyl)acrylamide] | – | – | – | 0.1 to 5 | < 0.1 | < 0.1 |
| Nc1ccc(/C=C/C(=O)NCc2cc3cc(-c4ccc(C(=O)N5CCC(F)(F)CC5)cn4)cnc3o2)cn1 [Compound 658, (E)-3-(6-aminopyridin-3-yl)-N-((5-(5-(4,4-difluoropiperidine-1-carbonyl)pyridin-2-yl)furo[2,3-b]pyridin-2-yl)methyl)acrylamide] | – | – | – | > 10 | 0.1 to 5 | 0.1 to 5 |
| Nc1ccc(/C=C/C(=O)NCc2cc3cc(-c4ccc(C(=O)NCc5cccnc5)cn4)cc(C(F)(F)F)c3o2)cn1 [Compound 630, (E)-6-(2-((3-(6-aminopyridin-3-yl)acrylamido)methyl)-7-(trifluoromethyl)benzofuran-5-yl)-N-(pyridin-3-ylmethyl)nicotinamide] | 0.1 to 5 | < 0.1 | < 0.1 | – | – | – |
| Nc1ccc(/C=C/C(=O)NCc2cc3cc(-c4ccc(C(=O)N5CCOCC5)cc4)cc(Cl)c3o2)cc1 [Compound 550, (E)-3-(4-Aminophenyl)-N-((7-chloro-5-(4-(morpholine-4-carbonyl)phenyl)benzofuran-2-yl)methyl)acrylamide] | > 10 | > 10 | > 10 | – | – | – |
| Nc1ccc(/C=C/C(=O)NCc2cc3c(-c4ccc(C(=O)N5CCC(F)(F)CC5)cc4)cc(Cl)cc3o2)cn1 [Compound 713, (E)-3-(6-aminopyridin-3-yl)-N-((6-chloro-4-(4-(4,4-difluoropiperidine-1-carbonyl)phenyl)benzofuran-2-yl)methyl)acrylamide] | – | – | – | 5 to 10 | 0.1 to 5 | 0.1 to 5 |
